Test results reported in patent US11084826B2, “RSV antiviral pyrazolo- and triazolo-pyrimidine compounds” (Janssen Sciences Ireland Unlimited Company, priority 2015, dated 2021).

Legend:
rgRSV224 virus = test: Antiviral activity: inhibition of rgRSV224 (GFP-expressing RSV) replication in HeLa cells, GFP expression read-out; type: cell-based, respiratory syncytial virus (RSV); settings: human respiratory syncytial virus, HeLa, read-out: RSV HELA pEC50, rgRSV224 virus (MOI=1) in HeLa cells, GFP read-out (converted)
Procedure, shortened: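 HeLa cells (3,000/well) were infected with GFP-expressing rgRSV224 (MOI=1) in the presence of 9 serial 4-fold compound dilutions (0.05% DMSO) and incubated at 37° C, 5% CO2. After three days, GFP expression was measured by laser microscopy. EC50 is the concentration giving 50% inhibition of GFP expression.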

[1] = Cytotoxicity in HeLa cells, ATP content measured with the ATPlite kit; type: cell-based; settings: human, TOX HELA pCC50

| Compound | EC50 (rgRSV224 virus) [nM] | CC50 at 3 days [1] [nM] | melting point [°C] |
| --- | --- | --- | --- |
| CCc1cc(C(=O)N2CCCCCC2C)nc2cc(-c3ccc(NC(=O)CCC(=O)O)cc3F)nn12 (stereo not drawn) [Compound E24] | 282 | > 25100 | 225 to 230 |
| CC1CCCCCN1C(=O)c1cc(N(C)C2CCCCC2)n2nc(-c3ccc(NC(=O)NCC4CCCO4)cc3)cc2n1 (stereo not drawn) [Compound B12] | 191 | > 100000 | 181 to 182 |
| CC1CCCCCN1C(=O)c1cc(N2CCCCC2)n2nc(-c3ccc(NC(=O)C4CC4)cc3)cc2n1 (stereo not drawn) [Compound E18] | 1260 | > 25100 | 299 to 300 |
| CCc1cc(C(=O)N2CCCCCC2C)nc2cc(-c3ccc(NC(=O)c4nccn4C)cc3)nn12 (stereo not drawn) [Compound E22] | 1700 | 21900 | 196 to 198 |
| CC1CCCCCN1C(=O)c1cc(N2CCCC2)n2nc(-c3ccc(NC(=O)C4CC4)cc3)cc2n1 (stereo not drawn) [Compound E17] | 513 | > 50100 | 282 to 284 |
| CCc1cc(C(=O)N2CCCCCC2C)nc2cc(-c3ccc(C(=O)NCCNC(C)=O)cc3F)nn12 (stereo not drawn) [Compound L4] | 234 | > 25100 | 174 |
| CCc1cc(C(=O)N2CCc3sccc3C2C)nc2cc(-c3ccc(-c4ccc(C(=O)O)cn4)cc3F)nn12 (racemic) [Compound F60] | 45.7 | > 25100 | 270.54 |
| CCc1cc(C(=O)N2CCCCCC2C)nc2cc(-c3ccc4c(c3)CCN4C)nn12 (stereo not drawn) [Compound A10] | 2090 | > 25100 | 155 |
| CCc1cc(C(=O)N2CCn3cccc3C2C)nc2cc(-c3ccc(/C=C/C(=O)O)cc3F)nn12 (stereo not drawn) [Compound M43] | 47.9 | > 25100 | 255 to 260 |
| CCc1cc(C(=O)N2CCCCCC2C)nc2cc(-c3ccc(NC(=O)CCC(=O)NC)cc3)nn12 (stereo not drawn) [Compound E29] | 457 | > 25100 | 204 to 205 |
| CCc1cc(C(=O)N2CCCCCC2C)nc2cc(-c3ccc(-c4ccc(C(=O)O)cn4)cc3F)nn12 (stereo not drawn) [Compound F14] | 182 | > 25100 | 245 to 250 |
| CCc1cc(C(=O)N2CCCCC[C@H]2C)nc2cc(-c3ccc(N4CCC(C)(C(=O)O)C4)cc3F)nn12 (stereo partly drawn) [Compound W17] | 21.9 | 58900 | 172.28 |
| CCc1cc(C(=O)N2CCCCCC2C)nc2cc(-c3ccc(NC(=O)CC4CCCCN(C)C4=O)cc3)nn12 (stereo not drawn) [Compound E9] | 170 | > 25100 | 255 to 260 |
| CCc1cc(C(=O)N2CCCCCC2C)nc2cc(-c3ccc(C(=O)NNCC4CC4)cc3F)nn12 (stereo not drawn) [Compound L9] | 372 | > 25100 | 140 |
| CCc1cc(C(=O)N2CCCCCC2C)nc2cc(-c3ccc(CCC(=O)O)cc3F)nn12 (stereo not drawn) [Compound Q1] | 537 | > 25100 | 125 to 130 |
| CC1CCCCCN1C(=O)c1cc(N2CCCC2)n2nc(-c3ccc(NC(=O)NCC4CCCO4)cc3)cc2n1 (stereo not drawn) [Compound B10] | 316 | > 100000 | 228 to 230 |
| CCc1cc(C(=O)N2CCCCCCC2C)nc2cc(-c3ccc(C(N)=O)cc3)nn12 (stereo not drawn) [Compound A29] | 155 | > 25100 | 170 to 175 |
| CCc1cc(C(=O)N2CCc3ccccc3C2C)nc2cc(-c3ccc(/C=C/C(=O)O)cc3F)nn12 (stereo not drawn) [Compound M11] | 38 | > 25100 | 225 to 230 |
| CCc1cc(C(=O)N2CCCCC[C@H]2C)nc2cc(-c3ccc([C@@H]4C[C@@H]4C(=O)O)cc3F)nn12 (racemic) [Compound O16] | 170 | > 100000 | 333.46 |
| CCc1cc(C(=O)N2CCCCCC2C)nc2cc(-c3ccc(-c4cccnc4F)cc3F)nn12 (stereo not drawn) [Compound F8] | 2340 | > 25100 | 86 to 87 |
| CCc1cc(C(=O)N2CC(C)(C)c3ccccc3C2C)nc2cc(-c3ccc(C(=O)O)cc3F)nn12 (stereo not drawn) [Compound K6] | 2400 | > 25100 | 235 to 240 |
| CCc1cc(C(=O)N2CCCCCC2C)nc2cc(-c3ccc(B(O)O)cc3F)nn12 (stereo not drawn) [Compound G1] | 282 | > 25100 | 195 to 200 |
| CCc1cc(C(=O)N2CCc3ccccc3C2C)nc2cc(-c3ccc(C(=O)O)cc3F)nn12 (stereo not drawn) [Compound K1] | 158 | > 25100 | 165 to 170 |
| CC1c2ccsc2CCN1C(=O)c1cc(C2CC2)n2nc(-c3ccc(C4C[C@H]4C(=O)O)cc3F)cc2n1 (single isomer, unassigned) [Compound O20] | 8.13 | 52500 | 252.97 |

| Compound | EC50 (rgRSV224 virus) [nM] | CC50 at 3 days [1] [nM] | melting point [°C] |
| --- | --- | --- | --- |
| C[C@@H]1CCCCCN1C(=O)c1cc(C2CCC2)n2nc(-c3ccc(-n4cc(C(=O)O)cn4)cc3F)cc2n1 [Compound W9] | 46.8 | 51300 | 142.16 |
| CCc1cc(C(=O)N2CCc3c([nH]c4ccccc34)C2C)nc2cc(-c3ccc(C(N)=O)cc3F)nn12 (stereo not drawn) [Compound I38] | 1780 | > 25100 | 205 to 210 |
| CCc1cc(C(=O)N2CCCCCC2C)nc2cc(-c3ccc(NS(C)(=O)=O)cc3F)nn12 (stereo not drawn) [Compound D1] | 288 | 51300 | 135 to 140 |
| CCc1cc(C(=O)N2CCc3sccc3[C@H]2C)nc2cc(-c3ccc(-n4cc(C(=O)O)cn4)cc3F)nn12 (racemic) [Compound W40] | 21.9 | 36300 | 168.11 |
| CCc1cc(C(=O)N2CCCCCC2C)nc2cc(-c3ccc(NC(=O)C4CC4)cc3C)nn12 (stereo not drawn) [Compound E16] | 1320 | > 10000 | 223 |
| CCc1cc(C(=O)N2CCCCCCC2C)nc2cc(-c3ccccc3F)nn12 (stereo not drawn) [Compound A18] | 355 | > 100000 | 125 to 130 |
| CCc1cc(C(=O)N2CCCCC2C)nc2cc(-c3ccc(NC(=O)NCC4CCCO4)cc3)nn12 (stereo not drawn) [Compound B7] | 631 | > 100000 | 175 to 180 |
| C[C@@H]1c2ccccc2CCN1C(=O)c1cc(C2(C)CC2)n2nc(-c3ccc(-n4cc(C(=O)O)cn4)cc3F)cc2n1 [Compound W26] | 23.4 | > 100000 | 238.58 |
| CCOC(=O)Nc1ccc(-c2cc3nc(C(=O)N4CCCCCC4C)cc(CC)n3n2)cc1 (stereo not drawn) [Compound C7] | 1380 | > 100000 | 195 to 200 |
| CCc1cc(C(=O)N2CCCCCC2C)nc2cc(-c3ccc(NC(=O)NCC4CCCO4)cc3)nn12 (stereo not drawn) [Compound B5] | 166 | > 100000 | 205 |
| CC1c2ccsc2CCN1C(=O)c1cc(C2CC2)n2nc(-c3cccc(/C=C/C(=O)O)c3F)cc2n1 (stereo not drawn) [Compound M46] | 5.01 | 67600 | 265.43 |
| CCc1cc(C(=O)N2CCCCCC2C)nc2cc(-c3ccc(NC(=S)NC4CC4)cc3F)nn12 (stereo not drawn) [Compound B14] | 437 | > 25100 | 220 to 222 |
| CCc1cc(C(=O)N2CCc3sccc3C2C)nc2cc(-c3cccc(/C=C/C(=O)O)c3F)nn12 (racemic) [Compound M48] | 12.9 | > 25100 | 255.5 |
| CCc1cc(C(=O)N2CCCCCC2C)nc2c(Cl)c(-c3ccc(NC(=O)C4CC4)cc3F)nn12 (stereo not drawn) [Compound E13] | 1480 | > 25100 | 245 to 250 |
| CCc1cc(C(=O)N2CCCCCC2C)nc2nc(-c3ccc(C(N)=O)cc3F)nn12 (stereo not drawn) [Compound V1] | 1910 | > 25100 | 215 to 220 |
| CCc1cc(C(=O)N2CCCCCC2C)nc2cc(-c3ccc(NC(=O)OCC4CCCN4C)cc3F)nn12 (stereo not drawn) [Compound C5] | 178 | 13800 | 165 to 170 |
| CCc1cc(C(=O)N2CCCCCC2C)nc2cc(-c3ccc(C(=O)NCCN(C)C)cc3F)nn12 (stereo not drawn) [Compound L2] | 550 | > 25100 | 178 |
| CCc1cc(C(=O)N2CCCCCC2C)nc2c(F)c(-c3ccc(NS(C)(=O)=O)cc3F)nn12 (stereo not drawn) [Compound D4] | 490 | > 25100 | 210 to 212 |
| CCc1cc(C(=O)N2CCCCCC2C)nc2cc(-c3ccc(-c4cncc(F)c4)cc3F)nn12 (stereo not drawn) [Compound F7] | 2090 | > 25100 | 95 to 96 |
| CCc1cc(C(=O)N2CCCCCC2C)nc2cc(-c3ccc(-c4nc(C)c(C(=O)O)s4)cc3F)nn12 (stereo not drawn) [Compound F18] | 200 | > 25100 | 165 to 170 |
| CCc1cc(C(=O)N2CCCCC[C@H]2C)nc2cc(-c3ccc(N4CCC(CO)(C(=O)O)C4)cc3F)nn12 (stereo partly drawn) [Compound W18] | 81.3 | > 100000 | 276.58 |
| CCc1cc(C(=O)N2CCCCCC2C)nc2cc(-c3ccc(C(N)=O)nc3)nn12 (stereo not drawn) [Compound I28] | 1780 | > 25100 | 174 to 175 |
| CC(C)=Cc1cc(C(=O)N2CCCCC[C@H]2C)nc2cc(-c3ccc(N4CC[C@H](C(=O)O)C4)cc3F)nn12 [Compound W15] | 51.3 | 57500 | 189.89 |
